From PubChem BioAssay AID1259407 (Chemical Carcinogenesis Research Information System (CCRIS), 2018)
Active and inactive are the calls of the source. No rule for the calls is given here.

Tested on: CCRIS mutagenicity, Ames/micronucleus/aberration tests
Assay: CCRIS mutagenicity studies
Settings: Test System: AMES SALMONELLA TYPHIMURIUM

SMILES: Cc1cc(Cl)ccc1O
- mutagenic call (Strain/Indicator: TA97, Metabolic Activation: HAMSTER, LIVER, S-9, AROCLOR 1254 (10%), Method: PREINCUBATION): inactive; negative
- mutagenic call (Strain/Indicator: TA97, Metabolic Activation: HAMSTER, LIVER, S-9, AROCLOR 1254 (30%), Method: PREINCUBATION): inactive; negative
- mutagenic call (Strain/Indicator: TA97, Metabolic Activation: NONE, Method: PREINCUBATION): inactive; negative
- mutagenic call (Strain/Indicator: TA97, Metabolic Activation: NONE, Method: STANDARD PLATE): active; positive
- mutagenic call (Strain/Indicator: TA97, Metabolic Activation: RAT, LIVER, S-9, AROCLOR 1254 (10%), Method: PREINCUBATION): inactive; negative
- mutagenic call (Strain/Indicator: TA97, Metabolic Activation: RAT, LIVER, S-9, AROCLOR 1254 (30%), Method: PREINCUBATION): inactive; negative
- mutagenic call (Strain/Indicator: TA97, Metabolic Activation: RAT, LIVER, S-9, AROCLOR 1254, Method: STANDARD PLATE): active; positive
- mutagenic call (Strain/Indicator: TA98, Metabolic Activation: HAMSTER, LIVER, S-9, AROCLOR 1254 (10%), Method: PREINCUBATION): inactive; negative
- mutagenic call (Strain/Indicator: TA98, Metabolic Activation: HAMSTER, LIVER, S-9, AROCLOR 1254 (30%), Method: PREINCUBATION): inactive; negative
- mutagenic call (Strain/Indicator: TA98, Metabolic Activation: NONE, Method: PREINCUBATION): inactive; negative
- mutagenic call (Strain/Indicator: TA98, Metabolic Activation: NONE, Method: STANDARD PLATE): inactive; negative
- mutagenic call (Strain/Indicator: TA98, Metabolic Activation: RAT, LIVER, S-9, AROCLOR 1254 (10%), Method: PREINCUBATION): inactive; negative
- mutagenic call (Strain/Indicator: TA98, Metabolic Activation: RAT, LIVER, S-9, AROCLOR 1254 (30%), Method: PREINCUBATION): inactive; negative
- mutagenic call (Strain/Indicator: TA98, Metabolic Activation: RAT, LIVER, S-9, AROCLOR 1254, Method: STANDARD PLATE): active; positive
- mutagenic call (Strain/Indicator: TA100, Metabolic Activation: HAMSTER, LIVER, S-9, AROCLOR 1254 (10%), Method: PREINCUBATION): inactive; negative
- mutagenic call (Strain/Indicator: TA100, Metabolic Activation: HAMSTER, LIVER, S-9, AROCLOR 1254 (30%), Method: PREINCUBATION): inactive; negative
- mutagenic call (Strain/Indicator: TA100, Metabolic Activation: NONE, Method: PREINCUBATION): inactive; negative
- mutagenic call (Strain/Indicator: TA100, Metabolic Activation: NONE, Method: STANDARD PLATE): inactive; negative
- mutagenic call (Strain/Indicator: TA100, Metabolic Activation: RAT, LIVER, S-9, AROCLOR 1254 (10%), Method: PREINCUBATION): inactive; negative
- mutagenic call (Strain/Indicator: TA100, Metabolic Activation: RAT, LIVER, S-9, AROCLOR 1254 (30%), Method: PREINCUBATION): inactive; negative
- mutagenic call (Strain/Indicator: TA100, Metabolic Activation: RAT, LIVER, S-9, AROCLOR 1254, Method: STANDARD PLATE): active; positive
- mutagenic call (Strain/Indicator: TA104, Metabolic Activation: NONE, Method: STANDARD PLATE): inactive; negative
- mutagenic call (Strain/Indicator: TA104, Metabolic Activation: RAT, LIVER, S-9, AROCLOR 1254, Method: STANDARD PLATE): inactive; negative
- mutagenic call (Strain/Indicator: TA1535, Metabolic Activation: HAMSTER, LIVER, S-9, AROCLOR 1254 (10%), Method: PREINCUBATION): inactive; negative
- mutagenic call (Strain/Indicator: TA1535, Metabolic Activation: HAMSTER, LIVER, S-9, AROCLOR 1254 (30%), Method: PREINCUBATION): inactive; negative
- mutagenic call (Strain/Indicator: TA1535, Metabolic Activation: NONE, Method: PREINCUBATION): inactive; negative
- mutagenic call (Strain/Indicator: TA1535, Metabolic Activation: RAT, LIVER, S-9, AROCLOR 1254 (10%), Method: PREINCUBATION): inactive; negative
- mutagenic call (Strain/Indicator: TA1535, Metabolic Activation: RAT, LIVER, S-9, AROCLOR 1254 (30%), Method: PREINCUBATION): inactive; negative
- mutagenic call (Strain/Indicator: TA1537, Metabolic Activation: HAMSTER, LIVER, S-9, AROCLOR 1254 (30%), Method: PREINCUBATION): inactive; negative
- mutagenic call (Strain/Indicator: TA1537, Metabolic Activation: NONE, Method: PREINCUBATION): inactive; negative
- mutagenic call (Strain/Indicator: TA1537, Metabolic Activation: RAT, LIVER, S-9, AROCLOR 1254 (30%), Method: PREINCUBATION): inactive; negative
